Reference: US10485235B2, “Aryloxypyrimidinyl ethers as herbicides” (FMC Corporation, priority 2015, dated 2019)

Legend:
Format in all cases: in vivo
kochia (Kochia scoparia) [1] = experiment: Test A postemergence, kochia; conditions: Bassia scoparia, post-emergence, 240 h, postemergence, 0 to 100 scale, 0 is no effect, 100 is complete control, approximately 10 days, read-out: Plant response rating, Kochia; for pest or weed control at 125 g/ha: 125 g ai/ha
Procedure, shortened: (§1)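 Approximately 10-day greenhouse assay. Formulated chemical (non-phytotoxic solvent plus surfactant) applied preemergence to soil over seeds or postemergence to plants of 2 to 10 cm. Endpoint: visual percent control, 0–100.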

[2] = system: ragweed (common ragweed, Ambrosia elatior); experiment: Test A postemergence, ragweed; conditions: Ambrosia artemisiifolia, post-emergence, 240 h, postemergence, 0 to 100 scale, 0 is no effect, 100 is complete control, approximately 10 days, read-out: Plant response rating, Ragweed; for pest or weed control at 125 g/ha: 125 g ai/ha
Procedure, shortened: as §1

[3] = system: barnyardgrass (Echinochloa crus-galli); experiment: Test B flooded paddy test, barnyardgrass; conditions: Echinochloa crus-galli; 250 g ai/ha, Flood; visual rating after 13 to 15 days; scale 0 to 100, 0 is no effect, 100 is complete control; read-out: Plant response rating, Barnyardgrass
Procedure, shortened: (§2)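 2-leaf plants; flood to 3 cm, dose into water, hold depth; greenhouse 13–15 d; visual score 0–100 vs controls; dash = not tested.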

[4] = system: ragweed (common ragweed, Ambrosia elatior); experiment: Test A preemergence, ragweed; conditions: Ambrosia artemisiifolia, pre-emergence, 240 h, Preemergence, 0 to 100 scale (0 no effect, 100 complete control), read-out: Plant response rating, Ragweed; for pest or weed control at 125 g/ha: 125 g ai/ha
Procedure, shortened: as §1

[5] = system: foxtail, giant (giant foxtail, Setaria faberii); experiment: Test A postemergence, giant foxtail; conditions: Setaria faberi, post-emergence, 240 h, postemergence, 0 to 100 scale, 0 is no effect, 100 is complete control, approximately 10 days, read-out: Plant response rating, Foxtail, Giant; for pest or weed control at 125 g/ha: 125 g ai/ha
Procedure, shortened: as §1

[6] = system: blackgrass (Alopecurus myosuroides); experiment: Test A postemergence, blackgrass; conditions: Alopecurus myosuroides, post-emergence, 240 h, postemergence, 0 to 100 scale, 0 is no effect, 100 is complete control, approximately 10 days, read-out: Plant response rating, Blackgrass; for pest or weed control at 125 g/ha: 125 g ai/ha
Procedure, shortened: as §1

[7] = system: sedge, umbrella (small-flower umbrella sedge, Cyperus difformis); experiment: Test B flooded paddy test, umbrella sedge; conditions: Cyperus difformis; 250 g ai/ha, Flood; visual rating after 13 to 15 days; scale 0 to 100, 0 is no effect, 100 is complete control; read-out: Plant response rating, Sedge, Umbrella
Procedure, shortened: as §2

[8] = system: wheat (Triticum aestivum); experiment: Test A postemergence, wheat; conditions: Triticum aestivum, post-emergence, 240 h, postemergence, 0 to 100 scale, 0 is no effect, 100 is complete control, approximately 10 days, read-out: Plant response rating, Wheat; for plant injury at 125 g/ha: 125 g ai/ha
Procedure, shortened: as §1

[9] = system: foxtail, giant (giant foxtail, Setaria faberii); experiment: Test A preemergence, giant foxtail; conditions: Setaria faberi, pre-emergence, 240 h, Preemergence, 0 to 100 scale (0 no effect, 100 complete control), read-out: Plant response rating, Foxtail, Giant; for pest or weed control at 125 g/ha: 125 g ai/ha
Procedure, shortened: as §1

corn (Zea mays) = experiment: Test A postemergence, corn; conditions: Zea mays, post-emergence, 240 h, postemergence, 0 to 100 scale, 0 is no effect, 100 is complete control, approximately 10 days; for Corn plant response rating (crop injury, 0 = no effect, 100 = complete kill) at 125 g/ha: 125 g ai/ha
Procedure, shortened: as §1

[10] = system: galium (catchweed bedstraw, Galium aparine); experiment: Test A postemergence, galium; conditions: Galium, post-emergence, 240 h, postemergence, 0 to 100 scale, 0 is no effect, 100 is complete control, approximately 10 days, read-out: Plant response rating, Galium; for pest or weed control at 125 g/ha: 125 g ai/ha
Procedure, shortened: as §1

rice (Oryza sativa) = experiment: Test B flooded paddy test, rice; conditions: Oryza sativa; 250 g ai/ha, Flood; visual rating after 13 to 15 days; scale 0 to 100, 0 is no effect, 100 is complete control; read-out: Plant response rating, Rice
Procedure, shortened: as §2

[11] = system: barnyardgrass (Echinochloa crus-galli); experiment: Test A postemergence, barnyardgrass; conditions: Echinochloa crus-galli, post-emergence, 240 h, postemergence, 0 to 100 scale, 0 is no effect, 100 is complete control, approximately 10 days, read-out: Plant response rating, Barnyardgrass; for pest or weed control at 125 g/ha: 125 g ai/ha
Procedure, shortened: as §1

kochia (Kochia scoparia) [12] = experiment: Test A preemergence, kochia; conditions: Bassia scoparia, pre-emergence, 240 h, Preemergence, 0 to 100 scale (0 no effect, 100 complete control), read-out: Plant response rating, Kochia; for pest or weed control at 125 g/ha: 125 g ai/ha
Procedure, shortened: as §1

[13] = system: ryegrass, Italian (Italian ryegrass, Lolium multiflorum); experiment: Test A preemergence, Italian ryegrass; conditions: Lolium multiflorum, pre-emergence, 240 h, Preemergence, 0 to 100 scale (0 no effect, 100 complete control), read-out: Plant response rating, Ryegrass, Italian; for pest or weed control at 125 g/ha: 125 g ai/ha
Procedure, shortened: as §1

Q: Which pest or weed control at 31 g/ha (kochia (Kochia scoparia) [1]; 31 g ai/ha) does the source give for `FC(F)(F)COc1c(Cl)cccc1Oc1ncc(Cl)cn1` [Compound 42] here?
A: The pest or weed control at 31 g/ha was 0%.

Q: What about the pest or weed control at 125 g/ha (kochia (Kochia scoparia) [1]) of the same molecule?
A: Its pest or weed control at 125 g/ha is 10%.

Q: What about the pest or weed control at 31 g/ha ([2]; 31 g ai/ha) of the same molecule?
A: Its pest or weed control at 31 g/ha is 0%.

Q: And the pest or weed control at 125 g/ha [2]?
A: Its pest or weed control at 125 g/ha is 0%.

Q: And the pest or weed control at 250 g/ha [3]?
A: Its pest or weed control at 250 g/ha is 0%.

Q: What about the pest or weed control at 31 g/ha ([4]; 31 g ai/ha) of the same molecule?
A: The pest or weed control at 31 g/ha was 0%.

Q: What about the pest or weed control at 125 g/ha [4] of the same molecule?
A: The pest or weed control at 125 g/ha was 0%.

Q: What about the pest or weed control at 31 g/ha ([5]; 31 g ai/ha) of the same molecule?
A: Its pest or weed control at 31 g/ha is 0%.

Q: What about the pest or weed control at 125 g/ha [5] of the same molecule?
A: The pest or weed control at 125 g/ha was 10%.

Q: And the pest or weed control at 31 g/ha ([6]; 31 g ai/ha)?
A: The pest or weed control at 31 g/ha was 0%.

Q: What about the pest or weed control at 125 g/ha [6] of the same molecule?
A: The pest or weed control at 125 g/ha was 10%.

Q: What about the pest or weed control at 250 g/ha [7] of the same molecule?
A: Its pest or weed control at 250 g/ha is 60%.

Q: And the plant injury at 31 g/ha ([8]; 31 g ai/ha)?
A: Its plant injury at 31 g/ha is 0%.

Q: What about the plant injury at 125 g/ha [8] of the same molecule?
A: Its plant injury at 125 g/ha is 0%.

Q: What about the pest or weed control at 31 g/ha ([9]; 31 g ai/ha) of the same molecule?
A: Its pest or weed control at 31 g/ha is 0%.

Q: What about the pest or weed control at 125 g/ha [9] of the same molecule?
A: The pest or weed control at 125 g/ha was 10%.

Q: And the Corn plant response rating (crop injury, 0 = no effect, 100 = complete kill) at 31 g/ha (corn (Zea mays); 31 g ai/ha)?
A: Its Corn plant response rating (crop injury, 0 = no effect, 100 = complete kill) at 31 g/ha is 0%.

Q: And the Corn plant response rating (crop injury, 0 = no effect, 100 = complete kill) at 125 g/ha (corn (Zea mays))?
A: The Corn plant response rating (crop injury, 0 = no effect, 100 = complete kill) at 125 g/ha was 10%.

Q: What about the pest or weed control at 31 g/ha ([10]; 31 g ai/ha) of the same molecule?
A: Its pest or weed control at 31 g/ha is 0%.

Q: And the pest or weed control at 125 g/ha [10]?
A: The pest or weed control at 125 g/ha was 20%.

Q: And the plant injury at 250 g/ha (rice (Oryza sativa))?
A: Its plant injury at 250 g/ha is 0%.

Q: And the pest or weed control at 31 g/ha ([11]; 31 g ai/ha)?
A: The pest or weed control at 31 g/ha was 0%.

Q: What about the pest or weed control at 125 g/ha [11] of the same molecule?
A: The pest or weed control at 125 g/ha was 10%.

Q: And the pest or weed control at 31 g/ha (kochia (Kochia scoparia) [12]; 31 g ai/ha)?
A: Its pest or weed control at 31 g/ha is 0%.

Q: And the pest or weed control at 125 g/ha (kochia (Kochia scoparia) [12])?
A: The pest or weed control at 125 g/ha was 10%.

Q: And the pest or weed control at 31 g/ha ([13]; 31 g ai/ha)?
A: Its pest or weed control at 31 g/ha is 0%.

Q: What about the pest or weed control at 125 g/ha [13] of the same molecule?
A: The pest or weed control at 125 g/ha was 0%.

Q: What does the source list for `FC(F)C(F)(F)COc1c(Br)cccc1Oc1ncc(Cl)cn1` [Compound 18, 2-[3-bromo-2-(2,2,3,3-tetrafluoropropoxy)phenoxy]-5-chloropyrimidine]?
A: pest or weed control at 125 g/ha (kochia (Kochia scoparia) [1]): 100%; pest or weed control at 500 g/ha (kochia (Kochia scoparia) [1]; 500 g ai/ha): 100%; pest or weed control at 125 g/ha [2]: 0%; pest or weed control at 500 g/ha ([2]; 500 g ai/ha): 20%; pest or weed control at 250 g/ha [3]: 0%; pest or weed control at 125 g/ha [4]: 0%; pest or weed control at 500 g/ha ([4]; 500 g ai/ha): 10%; pest or weed control at 125 g/ha [5]: 40%; pest or weed control at 500 g/ha ([5]; 500 g ai/ha): 100%; pest or weed control at 125 g/ha [6]: 20%; pest or weed control at 500 g/ha ([6]; 500 g ai/ha): 80%; pest or weed control at 250 g/ha [7]: 0%; plant injury at 125 g/ha [8]: 0%; plant injury at 500 g/ha ([8]; 500 g ai/ha): 20%; pest or weed control at 125 g/ha [9]: 100%; pest or weed control at 500 g/ha ([9]; 500 g ai/ha): 100%; Corn plant response rating (crop injury, 0 = no effect, 100 = complete kill) at 125 g/ha (corn (Zea mays)): 20%; Corn plant response rating (crop injury, 0 = no effect, 100 = complete kill) at 500 g/ha (corn (Zea mays); 500 g ai/ha): 30%; pest or weed control at 125 g/ha [10]: 80%; pest or weed control at 500 g/ha ([10]; 500 g ai/ha): 100%; plant injury at 250 g/ha (rice (Oryza sativa)): 0%; pest or weed control at 125 g/ha [11]: 30%; pest or weed control at 500 g/ha ([11]; 500 g ai/ha): 100%; pest or weed control at 125 g/ha (kochia (Kochia scoparia) [12]): 30%; pest or weed control at 500 g/ha (kochia (Kochia scoparia) [12]; 500 g ai/ha): 100%; pest or weed control at 125 g/ha [13]: 10%; pest or weed control at 500 g/ha ([13]; 500 g ai/ha): 100%
